Species: Rattus norvegicus
Test: Open TG-GATES - Regimen: Daily Repeat
Format: toxicity, organism-based, Sprague-Dawley
Set-up: regimen Daily Repeat, gender Male, age 6 weeks
Details: in vivo, po, route gavage; for APTT / Bas / Eos / Fbg / Hb / Ht / Lym / MCH / MCV / Mono / Neu / PT / Plat / RBC / Ret / WBC: tissue Blood; for KIDNEY_L / KIDNEY_R / KIDNEY_TOTAL: tissue Kidney; for LIVER: tissue Liver; for ALP / ALT / AST / BUN / CRE / Ca / Cl / DBIL / GLC / IP / K / LDH / Na / PL / RALB / TBIL / TP / gamma-GTP: tissue Plasma
[1] = 0 mg/kg, 72 h, dose level Control, time 3 day
[2] = 0 mg/kg, […], dose level Control, time 7 day
[3] = 0 mg/kg, […], dose level Control, time 14 day
[4] = 0 mg/kg, […], dose level Control, time 28 day
[5] = 30 mg/kg, 72 h, dose level Low, time 3 day
[6] = 30 mg/kg, […], dose level Low, time 7 day
[7] = 30 mg/kg, […], dose level Low, time 14 day
[8] = 30 mg/kg, […], dose level Low, time 28 day
[9] = 100 mg/kg, 72 h, dose level Middle, time 3 day

NC(=O)N1c2ccccc2C=Cc2ccccc21 [CARBAMAZEPINE]
TERMINAL_BW [1]: 235.3 g
APTT [1]: 19.1 s
Bas [1]: 0%
Eos [1]: 1%
Fbg [1]: 213.8 mg/dL
Hb [1]: 13.6 g/dL
Ht [1]: 40.2%
Lym [1]: 79%
MCH [1]: 21 pg
MCV [1]: 61.9 fL
Mono [1]: 3.6%
Neu [1]: 15.6%
PT [1]: 12.3 s
Plat [1]: 123.2 x10_4/uL
RBC [1]: 648.8 x10_4/ul
Ret [1]: 4.9%
WBC [1]: 95.6 x10_2/uL
KIDNEY_L [1]: 1.1 g
KIDNEY_R [1]: 1.1 g
KIDNEY_TOTAL [1]: 2.2 g
LIVER [1]: 11.5 g
ALP [1]: 1022.4 IU/L
ALT [1]: 41.4 IU/L
AST [1]: 77 IU/L
BUN [1]: 15.6 mg/dL
CRE [1]: 0.4 mg/dL
Ca [1]: 10.7 mg/dL
Cl [1]: 102.4 meq/L
DBIL [1]: 0.08 mg/dL
GLC [1]: 213.8 mg/dL
IP [1]: 7.8 mg/dL
K [1]: 3.8 meq/L
LDH [1]: 178.8 IU/L
Na [1]: 140.4 meq/L
PL [1]: 144 mg/dL
RALB [1]: 3.3 g/dL
TBIL [1]: 0.1 mg/dL
TP [1]: 5.6 g/dL
gamma-GTP [1]: 0.8 IU/L
TERMINAL_BW [2]: 265.1 g
TERMINAL_BW [3]: 321.1 g
TERMINAL_BW [4]: 388.8 g
APTT [2]: 21.2 s
Bas [2]: 0%
Eos [2]: 1%
Fbg [2]: 223 mg/dL
Hb [2]: 14 g/dL
Ht [2]: 40.8%
Lym [2]: 81%
MCH [2]: 20.8 pg
MCV [2]: 60.5 fL
Mono [2]: 2.4%
Neu [2]: 14.4%
PT [2]: 11.9 s
Plat [2]: 122.6 x10_4/uL
RBC [2]: 674.4 x10_4/ul
Ret [2]: 3.8%
WBC [2]: 90.9 x10_2/uL
APTT [3]: 22 s
Bas [3]: 0%
Eos [3]: 1%
Fbg [3]: 219 mg/dL
Hb [3]: 14.5 g/dL
Ht [3]: 41.7%
Lym [3]: 82.2%
MCH [3]: 20.7 pg
MCV [3]: 59.6 fL
Mono [3]: 2.6%
Neu [3]: 13.2%
PT [3]: 12.2 s
Plat [3]: 129 x10_4/uL
RBC [3]: 700.4 x10_4/ul
Ret [3]: 4.2%
WBC [3]: 120.8 x10_2/uL
APTT [4]: 20.4 s
Bas [4]: 0%
Eos [4]: 1.2%
Fbg [4]: 212.8 mg/dL
Hb [4]: 15.3 g/dL
Ht [4]: 43.3%
Lym [4]: 81%
MCH [4]: 20.1 pg
MCV [4]: 56.8 fL
Mono [4]: 2.4%
Neu [4]: 14.6%
PT [4]: 12.2 s
Plat [4]: 111.8 x10_4/uL
RBC [4]: 762 x10_4/ul
Ret [4]: 2.4%
WBC [4]: 105.6 x10_2/uL
KIDNEY_L [2]: 1.1 g
KIDNEY_R [2]: 1.1 g
KIDNEY_TOTAL [2]: 2.3 g
KIDNEY_L [3]: 1.3 g
KIDNEY_R [3]: 1.2 g
KIDNEY_TOTAL [3]: 2.5 g
KIDNEY_L [4]: 1.4 g
KIDNEY_R [4]: 1.4 g
KIDNEY_TOTAL [4]: 2.8 g
LIVER [2]: 12.2 g
LIVER [3]: 13.6 g
LIVER [4]: 15.2 g
ALP [2]: 993 IU/L
ALT [2]: 37.6 IU/L
AST [2]: 74 IU/L
BUN [2]: 16.8 mg/dL
CRE [2]: 0.4 mg/dL
Ca [2]: 10.5 mg/dL
Cl [2]: 102.4 meq/L
DBIL [2]: 0.1 mg/dL
GLC [2]: 218.2 mg/dL
IP [2]: 7.5 mg/dL
K [2]: 3.8 meq/L
LDH [2]: 218.6 IU/L
Na [2]: 140.6 meq/L
PL [2]: 158.6 mg/dL
RALB [2]: 3.5 g/dL
TBIL [2]: 0.2 mg/dL
TP [2]: 5.8 g/dL
gamma-GTP [2]: 1 IU/L
ALP [3]: 817.2 IU/L
ALT [3]: 36 IU/L
AST [3]: 64 IU/L
BUN [3]: 16.7 mg/dL
CRE [3]: 0.5 mg/dL
Ca [3]: 10.7 mg/dL
Cl [3]: 102.4 meq/L
DBIL [3]: 0.1 mg/dL
GLC [3]: 207.4 mg/dL
IP [3]: 7 mg/dL
K [3]: 3.8 meq/L
LDH [3]: 204.6 IU/L
Na [3]: 141.6 meq/L
PL [3]: 151.4 mg/dL
RALB [3]: 3.5 g/dL
TBIL [3]: 0.2 mg/dL
TP [3]: 5.9 g/dL
gamma-GTP [3]: 1 IU/L
ALP [4]: 739.6 IU/L
ALT [4]: 35.4 IU/L
AST [4]: 68.2 IU/L
BUN [4]: 18 mg/dL
CRE [4]: 0.5 mg/dL
Ca [4]: 10.3 mg/dL
Cl [4]: 102 meq/L
DBIL [4]: 0.1 mg/dL
GLC [4]: 224.8 mg/dL
IP [4]: 6.7 mg/dL
K [4]: 3.4 meq/L
LDH [4]: 182.6 IU/L
Na [4]: 141 meq/L
PL [4]: 147.8 mg/dL
RALB [4]: 3.4 g/dL
TBIL [4]: 0.2 mg/dL
TP [4]: 6.2 g/dL
gamma-GTP [4]: 1.2 IU/L
TERMINAL_BW [5]: 237.7 g
APTT [5]: 19.7 s
Bas [5]: 0%
Eos [5]: 1%
Fbg [5]: 213 mg/dL
Hb [5]: 13.4 g/dL
Ht [5]: 39.4%
Lym [5]: 80.4%
MCH [5]: 21 pg
MCV [5]: 62 fL
Mono [5]: 3.4%
Neu [5]: 14%
PT [5]: 12.2 s
Plat [5]: 120.4 x10_4/uL
RBC [5]: 636 x10_4/ul
Ret [5]: 5.2%
WBC [5]: 98.2 x10_2/uL
KIDNEY_L [5]: 1 g
KIDNEY_R [5]: 1 g
KIDNEY_TOTAL [5]: 2 g
LIVER [5]: 11.7 g
ALP [5]: 1007.4 IU/L
ALT [5]: 35.6 IU/L
AST [5]: 66.6 IU/L
BUN [5]: 14.8 mg/dL
CRE [5]: 0.4 mg/dL
Ca [5]: 10.8 mg/dL
Cl [5]: 103.2 meq/L
DBIL [5]: 0.094 mg/dL
GLC [5]: 209.6 mg/dL
IP [5]: 7.6 mg/dL
K [5]: 3.5 meq/L
LDH [5]: 197.2 IU/L
Na [5]: 140 meq/L
PL [5]: 148.8 mg/dL
RALB [5]: 3.3 g/dL
TBIL [5]: 0.1 mg/dL
TP [5]: 5.6 g/dL
gamma-GTP [5]: 1.2 IU/L
TERMINAL_BW [6]: 270.1 g
TERMINAL_BW [7]: 327.6 g
TERMINAL_BW [8]: 366.9 g
APTT [6]: 21.4 s
Bas [6]: 0%
Eos [6]: 0.8%
Fbg [6]: 214.2 mg/dL
Hb [6]: 13.7 g/dL
Ht [6]: 40.2%
Lym [6]: 83.2%
MCH [6]: 20.8 pg
MCV [6]: 61.1 fL
Mono [6]: 2.4%
Neu [6]: 12.6%
PT [6]: 12 s
Plat [6]: 127.1 x10_4/uL
RBC [6]: 658.2 x10_4/ul
Ret [6]: 4.4%
WBC [6]: 103.7 x10_2/uL
APTT [7]: 20.7 s
Bas [7]: 0%
Eos [7]: 1%
Fbg [7]: 206.2 mg/dL
Hb [7]: 14.3 g/dL
Ht [7]: 41.1%
Lym [7]: 83%
MCH [7]: 20.4 pg
MCV [7]: 58.8 fL
Mono [7]: 2.4%
Neu [7]: 12.6%
PT [7]: 12.2 s
Plat [7]: 119.9 x10_4/uL
RBC [7]: 700.8 x10_4/ul
Ret [7]: 4%
WBC [7]: 100 x10_2/uL
APTT [8]: 21 s
Bas [8]: 0%
Eos [8]: 0.8%
Fbg [8]: 197.8 mg/dL
Hb [8]: 15.9 g/dL
Ht [8]: 45.7%
Lym [8]: 83%
MCH [8]: 19.5 pg
MCV [8]: 55.9 fL
Mono [8]: 2.2%
Neu [8]: 12.6%
PT [8]: 12.3 s
Plat [8]: 108.1 x10_4/uL
RBC [8]: 820.4 x10_4/ul
Ret [8]: 2.2%
WBC [8]: 127.9 x10_2/uL
KIDNEY_L [6]: 1.1 g
KIDNEY_R [6]: 1.1 g
KIDNEY_TOTAL [6]: 2.2 g
KIDNEY_L [7]: 1.3 g
KIDNEY_R [7]: 1.3 g
KIDNEY_TOTAL [7]: 2.6 g
KIDNEY_L [8]: 1.3 g
KIDNEY_R [8]: 1.3 g
KIDNEY_TOTAL [8]: 2.6 g
LIVER [6]: 12.5 g
LIVER [7]: 15.3 g
LIVER [8]: 14.4 g
ALP [6]: 876.6 IU/L
ALT [6]: 37 IU/L
AST [6]: 70.6 IU/L
BUN [6]: 16.2 mg/dL
CRE [6]: 0.4 mg/dL
Ca [6]: 10.4 mg/dL
Cl [6]: 100.8 meq/L
DBIL [6]: 0.088 mg/dL
GLC [6]: 233.6 mg/dL
IP [6]: 8.2 mg/dL
K [6]: 3.7 meq/L
LDH [6]: 187.4 IU/L
Na [6]: 139.4 meq/L
PL [6]: 150.8 mg/dL
RALB [6]: 3.4 g/dL
TBIL [6]: 0.1 mg/dL
TP [6]: 5.7 g/dL
gamma-GTP [6]: 1 IU/L
ALP [7]: 890.2 IU/L
ALT [7]: 30.8 IU/L
AST [7]: 60.8 IU/L
BUN [7]: 16.9 mg/dL
CRE [7]: 0.5 mg/dL
Ca [7]: 10.7 mg/dL
Cl [7]: 101.2 meq/L
DBIL [7]: 0.1 mg/dL
GLC [7]: 219.8 mg/dL
IP [7]: 7.1 mg/dL
K [7]: 3.8 meq/L
LDH [7]: 208.4 IU/L
Na [7]: 140.6 meq/L
PL [7]: 160.2 mg/dL
RALB [7]: 3.4 g/dL
TBIL [7]: 0.2 mg/dL
TP [7]: 5.9 g/dL
gamma-GTP [7]: 0.8 IU/L
ALP [8]: 673 IU/L
ALT [8]: 36.6 IU/L
AST [8]: 68.4 IU/L
BUN [8]: 17.8 mg/dL
CRE [8]: 0.5 mg/dL
Ca [8]: 10.3 mg/dL
Cl [8]: 101.8 meq/L
DBIL [8]: 0.098 mg/dL
GLC [8]: 224.4 mg/dL
IP [8]: 6.7 mg/dL
K [8]: 3.4 meq/L
LDH [8]: 150.8 IU/L
Na [8]: 141.4 meq/L
PL [8]: 148 mg/dL
RALB [8]: 3.5 g/dL
TBIL [8]: 0.1 mg/dL
TP [8]: 6.2 g/dL
gamma-GTP [8]: 1 IU/L
TERMINAL_BW [9]: 234.6 g
APTT [9]: 20.1 s
Bas [9]: 0%

— ChEMBL document CHEMBL3885861, “Open TG-GATES”
